Source: PubChem BioAssay (NCI)
“And” between values parts separate entries of the source, which are not always exact repeats. Equal entries are not always repeated.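 Step 1: Grow cells in 96-well plates. Step 2: Expose to compound for 48 hours at 5 concentrations. Step 3: Interpolate endpoints linearly; if unreached, use highest concentration. GI50: concentration for 50% inhibition of growth. Definition used: TGI = concentration required for complete inhibition of growth.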 *1 amine or outer side, *2 acyl side, *3 side chain or, on linkers, in order; H or OH if unused. Where a SMILES comes first, the peptide text is derived from it. Bridges are numbered along the chain shown (N, C = ends). [ ]: non-standard residue; d: D form. ξ: configuration not given here. X4 = CCC(C)C(N[*:1])C(O)CC(=O)O[C@H](C(=O)C(C)C(=O)[*:2])C(C)C; NMeY = CN[C@@H](Cc1ccc(O)cc1)C(=O)O; X9 = O=C([C@@H]1CC(O)CN1[*:1])[*:2]; ξNMeL = CNC(CC(C)C)C(=O)O; ξT = CC(O)C(N)C(=O)O

What was measured:
Assay in all cases: DTP human tumour cell line panel, 48 h
K-562 leukemia = test system: K-562 leukemia
UO-31 renal = test system: UO-31 renal
BT-549 breast = test system: BT-549 breast
NCI-H23 lung = test system: NCI-H23 lung
NCI-H226 lung = test system: NCI-H226 lung
PC-3 prostate = test system: PC-3 prostate
SNB-19 CNS = test system: SNB-19 CNS
SR leukemia = test system: SR leukemia
T-47D breast = test system: T-47D breast
OVCAR-3 ovarian = test system: OVCAR-3 ovarian

SMILES	TGI (K-562 leukemia)	TGI (UO-31 renal)	TGI (BT-549 breast)	TGI (NCI-H23 lung)	TGI (NCI-H226 lung)	TGI (PC-3 prostate)	TGI (SNB-19 CNS)	TGI (SR leukemia) [µM]	TGI (T-47D breast)	TGI (OVCAR-3 ovarian)	GI50 (K-562 leukemia) [µM]	GI50 (UO-31 renal)	GI50 (BT-549 breast)	GI50 (NCI-H23 lung)	GI50 (NCI-H226 lung)	GI50 (PC-3 prostate)	GI50 (SNB-19 CNS)	GI50 (SR leukemia)	GI50 (T-47D breast)	GI50 (OVCAR-3 ovarian)
CCOC(=O)C1CCC/C1=N\N=C(N)N (stereo not given) (tested in a mixture with another compound)	> 100 µM	> 100 µM	> 100 µM	> 100 µM	> 100 µM	> 100 µM	> 100 µM	> 100	> 100 µM	> 100 µM										
OCCNc1nc(NCCO)nc(Nc2ccc(C3=NN(c4cc(Cl)cc(Cl)c4)C(c4ccc(Cl)cc4)C3)cc2)n1 (stereo not given)	3.74 µM	3.16 µM	3.8 µM	3.4 µM	5.48 µM	4.32 µM	4.12 µM	3.31	3.88 µM	3.19 µM	1.73	1.63 µM	1.77 µM	1.72 µM	2.45 µM	1.62 µM	2.07 µM	1.45 µM	1.5 µM	1.75 µM
CC(=O)OCC(=O)[C@@]1(O)[C@H](C)C[C@H]2[C@@H]3C=C(C)C4=Cc5c(cnn5-c5ccc(F)cc5)C[C@]4(C)[C@H]3[C@@H](O)C[C@@]21C	> 23.2 µM	15.6 µM	4.78 µM	5.8 µM	9.08 µM	5.06 µM	6.27 µM	7.93	8.72 µM	3.84 µM	1.15	4.31 µM	1.77 µM	2.08 µM	2.23 µM	1.8 µM	2.03 µM	2.35 µM	2.75 µM	1.78 µM
C#Cc1cccc(NC(=O)Nc2ccc(NC(=O)CCl)cc2)c1	53.9 µM	23.3 µM	24.1 µM	36 µM	73.9 µM	74.5 µM	40.8 µM	26.7	69.8 µM	25.5 µM	15.5	12.2 µM	11.9 µM	15.4 µM	22.4 µM	17.1 µM	15.7 µM	9.79 µM	15.9 µM	12.1 µM
CC1(C)OC2C(CO)OC(n3ccc(=O)[nH]c3=O)C2O1 (stereo not given)	> 100 µM	> 100 µM	> 100 µM	> 100 µM	> 100 µM	> 100 µM	> 100 µM	> 100	> 100 µM	> 100 µM										
C[C@]12CC[C@H]3[C@@H](CCC4=CC(=O)CC[C@@H]43)[C@@H]1CC[C@@H]2OC1(O)C(=O)c2ccccc2C1=O	> 100 µM	78.3 µM	> 100 µM	62.5 µM	> 100 µM	> 100 µM	> 100 µM	> 100	> 100 µM	> 100 µM										
CC(C)(C)Cn1c(N)nc2ccc(-c3[nH]c(C(C)(C)C)nc3-c3ccc(F)cc3)nc21	> 72.8 µM	15.1 µM	26 µM	31 µM	35.9 µM	> 62.5 µM	24.8 µM	47.9	23.7 µM	23.7 µM	3.73	0.406 µM	12.1 µM	13.9 µM	12.2 µM	12.6 µM	11.7 µM	10.5 µM	5.34 µM	9.47 µM
COc1cc(N2CCC(N(C)C)CC2)ccc1Nc1ncc(Cl)c(Nc2ccccc2P(C)(C)=O)n1	> 100 µM	4.73 µM and 4.59 µM	9.97 µM and 4.35 µM	17.1 µM and > 4.62 µM	2.76 µM and 4.21 µM	> 96.6 µM	98.7 µM and > 10 µM		38.5 µM and > 10 µM	11.3 µM and 7.01 µM		1.82 µM and 0.752 µM	2.98 µM and 0.791 µM	1.33 µM and 0.338 µM	0.454 µM and 0.0582 µM	3.73 µM and 0.506 µM	2.25 µM and 1.07 µM	< 0.0113 µM and 0.0295 µM	7.03 µM and 1.43 µM	1.73 µM and 0.728 µM
CCCCCC(=O)N1c2ccccc2NC2=C(C(=O)CC(c3ccc(OC)c(OC)c3)C2)C1c1ccc(C(F)(F)F)cc1 (stereo not given)	> 100 µM	> 100 µM	> 100 µM	> 100 µM	> 100 µM	> 100 µM	> 100 µM	> 100	> 100 µM	> 100 µM	> 100	42.5 µM	> 100 µM	> 100 µM	> 100 µM	6.25 µM	> 100 µM	> 100 µM	> 100 µM	> 100 µM
Cc1ccc(NC(=O)c2ccnc(C(F)(F)F)c2)cc1-c1cc(OCCO)nc(N2CCOCC2)c1	41.6 µM	13.1 µM	22.9 µM	12.5 µM	34.6 µM	> 100 µM	19.2 µM	> 100	> 100 µM	12.5 µM	1.86	0.495 µM	5.87 µM	0.916 µM	2.81 µM	3.24 µM	3.64 µM	0.613 µM	3.31 µM	2.62 µM
COc1cc(C)cc2c1OC(c1ccccc1)CC2=O (stereo not given)	> 100 µM	> 100 µM	> 100 µM	> 100 µM	> 100 µM	> 100 µM	> 100 µM	> 100	> 100 µM	> 100 µM	> 100	> 100 µM	> 100 µM	> 100 µM	> 100 µM	> 100 µM	> 100 µM	> 100 µM	> 100 µM	> 100 µM
COC(=O)C1=CN(CC2=CC(=O)C(C)=CC2=O)C=C(C(=O)OC)C1c1cccc(OC)c1OC	26 µM	25.5 µM	> 100 µM	> 55.1 µM	40.5 µM	38.6 µM	> 70 µM	13.8	> 94.4 µM	24 µM	3.62	12.9 µM	34.3 µM	22.4 µM	15.6 µM	15.3 µM	> 43.1 µM	1.08 µM	46.2 µM	8.19 µM
O=C(O)CC(Cc1ccc2c(c1)OCO2)C(=O)O (stereo not given)	> 100 µM	> 100 µM	> 100 µM	> 100 µM	> 100 µM	> 100 µM	> 100 µM	> 100	> 100 µM	> 100 µM										
[N-]=[N+]=Nc1ncc(-c2ccc(C(F)(F)F)cc2)c(NC2CCCCCC2)n1	> 10 µM	> 10 µM	> 10 µM	> 10 µM	> 10 µM	> 10 µM	> 10 µM	> 10	> 10 µM	> 10 µM	> 10	> 10 µM	> 10 µM	> 10 µM	> 10 µM	> 10 µM	> 10 µM	> 10 µM	> 10 µM	> 10 µM
COc1cc2c(cc1OCCCCCOc1cc(-c3ccc(F)cc3)nc(C)n1)N=C[C@@H]1CCCN1C2=O	> 66.4 µM	> 59 µM	> 61.1 µM	> 100 µM	> 100 µM	> 60.5 µM	> 100 µM	> 57.9	59.6 µM	> 58.3 µM	> 21.6	> 28.3 µM	> 32.8 µM	> 100 µM	> 100 µM	> 33.3 µM	> 46.2 µM		6.27 µM	> 38.2 µM
Cc1c(C(=O)/C=C/c2ccc(O)cc2)nnn1-c1ccnc2c(C(F)(F)F)cccc12	> 100 µM	> 100 µM	> 100 µM	> 100 µM	> 100 µM	> 100 µM	> 100 µM	9.86	> 100 µM	> 100 µM	2.64	41.9 µM	60.2 µM	15.2 µM	27.3 µM	7.88 µM	24.9 µM	2.29 µM	5.53 µM	19.5 µM
COc1ccc2c(c1)[nH]c(=O)c1c3cccnc3cn21	19.8 µM	14.6 µM	25.3 µM	35.3 µM	18.6 µM		> 100 µM	5.75	31.6 µM	0.0588 µM	0.0271	0.0797 µM	0.356 µM	0.131 µM	0.0409 µM	0.0338 µM	0.0515 µM	0.0271 µM	2.72 µM	0.0251 µM
CN(C)c1cccc2[nH]c(-c3[nH]ncc3Nc3ccnc(N)n3)nc12	1.52 µM	0.276 µM	0.0979 µM	0.217 µM	0.193 µM	0.276 µM	1.77 µM	5.47	2.01 µM	1.09 µM	0.0167	< 0.0142 µM	0.0165 µM	0.0232 µM	< 0.0159 µM	0.0147 µM	0.0152 µM	< 0.01 µM	0.0331 µM	< 0.0121 µM
O=C(O)C(/C=C/c1ccco1)=N\Nc1nc(-c2ccc(Cl)cc2)cs1	> 50 µM	> 50 µM	> 50 µM	> 50 µM	25.4 µM	> 50 µM	> 50 µM	> 50	> 50 µM	> 50 µM	13.5	12.9 µM	16.9 µM	15.2 µM	9.41 µM	17.3 µM	9.64 µM	4.83 µM	17.3 µM	9.51 µM
COc1ccc(NC2=C(Sc3nc(C)cc(C)n3)C(=O)N(Cc3ccccc3)C2=O)cc1Cl	> 160 µM	> 160 µM	> 160 µM	> 160 µM	> 160 µM	> 160 µM	> 160 µM	> 160	> 160 µM	> 160 µM	> 160	> 160 µM	89.5 µM	> 160 µM	39.5 µM	32.9 µM	> 160 µM	37.5 µM	25.1 µM	> 160 µM
Cc1sc2ncnc(Sc3nc4ccccc4[nH]3)c2c1C	97.3 µM	96.7 µM	> 100 µM	> 100 µM	> 100 µM	> 100 µM	> 100 µM	23	62.9 µM	60 µM	23.4	14.7 µM	27.2 µM	30.4 µM	27.2 µM	23.9 µM	47 µM	10.6 µM	18.1 µM	23.3 µM
Nc1nc(-n2cccn2)nc(-n2cccn2)c1Br	> 100 µM	> 100 µM	> 100 µM	> 100 µM	> 100 µM	> 100 µM		> 100	> 100 µM	> 100 µM	> 100	> 100 µM	> 100 µM	> 100 µM	> 100 µM	> 100 µM		> 100 µM	> 100 µM	> 100 µM
c1ccc(-c2nc(Nc3ccc(-c4nc5ccccc5[nH]4)cc3)nc(N3CCOCC3)n2)cc1	0.959 µM	2.91 µM	3.9 µM	4.78 µM	4.58 µM	3.64 µM		0.555	3.82 µM	2.98 µM	0.295	1.32 µM	1.98 µM	2.07 µM	2.4 µM	1.8 µM		0.125 µM	1.62 µM	1.52 µM
COc1ccc(C2=NNC(c3ccc(-c4ccc(OC)cc4[N+](=O)[O-])o3)C2)cc1 (stereo not given)	> 100 µM	> 100 µM	93.5 µM	> 100 µM		> 100 µM	> 100 µM	> 100	88.1 µM	62.2 µM	36.4	> 100 µM	26.6 µM	33 µM		83.3 µM	31.8 µM	20.2 µM	18.5 µM	21 µM
CCOC(=O)c1sc(=S)c2c(C(=O)c3ccccc3)c(C(=O)c3ccccc3)sc2c1C(=O)OCC	> 100 µM	> 100 µM	12.6 µM		> 100 µM	35.4 µM	> 100 µM	5.98	> 100 µM	5.93 µM	3.21	5.12 µM	3.43 µM		6.68 µM	3.61 µM	8.87 µM	2.58 µM	8.64 µM	2.01 µM
CCC(C)C1NC(=O)C(NC(=O)C(CC(C)C)N(C)C(=O)[C@@H]2CC(O)CN2)C(C)OC(=O)[C@H](Cc2ccc(OC)cc2)N(C)C(=O)[C@@H]2CCCN2C(=O)[C@H](CC(C)C)NC(=O)C(C)C(=O)[C@H](C(C)C)OC(=O)CC1O (stereo not given in full) (H-[X9][ξNMeL][ξT][X4]LP[NMeY](Me); ester 3-C)	0.114 µM and 0.131 µM	0.954 µM and 7.18 µM	0.0575 µM and 0.0866 µM		0.0804 µM and 0.355 µM	0.13 µM and 0.131 µM	0.45 µM and 0.148 µM	> 100	0.0657 µM and 0.0994 µM	0.11 µM and 0.295 µM		0.711 µM			0.0302 µM					0.0166 µM
